# Laboratory results as given in PMC2535826, “Cross-Species Differential Plasma Protein Binding of MBX-102/JNJ39659100: A Novel PPAR-γ Agonist” (PPAR Research, 2008).
# Where two headings read alike, the source gives them in different places.
# Experiments:
# [1] = test system: rat and human plasma; assay: Competitive equilibrium dialysis, rat versus human plasma; assay type: in vitro ADME, Sprague-Dawley rat; conditions: 37°C, n = 5
# Experimental: (§1) A comparison of the binding to plasma from different species was performed essentially by the method described below. Briefly, [^3H] MBX-102 acid spiked plasma samples were formulated as described above with the exception that pH was not adjusted to 7.4 and the final DMSO concentration was 0.6%. A 1 mL sample of spiked human plasma was applied to one side of the dialysis membrane and 1 mL of spiked animal plasma was applied to the other side. The samples were dialyzed by rotation at 20 rpm for up to 120 hours in a 37°C incubator. The ratio of free drug in plasma was calculated according to the equation: ratio of free drug (animal versus human) = (total cpm in human plasma)/(total cpm in animal plasma).
# [2] = molecular target: T1, mouse serum albumin (Mus musculus, UniProt P07724); assay: Albumin binding by surface plasmon resonance (SPR), MSA
# T1 construct: purchased Sigma
# Experimental: (§2) The characterization of the binding of MBX-102 acid against human, mouse, and rat albumin was performed using SPR-based biosensors (Biosensor Tools, Salt Lake City, Utah, USA). The assay methods used to assess the binding of MBX-102 acid to human, mouse, and rat albumins have been described previously. Briefly, each albumin was immobilized onto a CM5 sensor chip using standard amine coupling. Immobilization densities were between 10 000 and 13 000 RU. […] Each of the 16 different concentrations was tested in duplicate. […] All binding data were collected at 37°C. The binding response profile of MBX-102 acid over the three different albumin surfaces was evaluated and the binding constants for the high-affinity site were determined using a two-independent-site model. Conversion from KD to %bound was performed as previously described.
# [3] = molecular target: T2, rat serum albumin (Rattus norvegicus, UniProt P02770); assay: Albumin binding by surface plasmon resonance (SPR), RSA
# T2 construct: purchased Sigma
# Experimental: as §2
# [4] = Plasma protein binding by equilibrium dialysis, rat plasma; assay type: in vitro ADME, Sprague Dawley rats; conditions: Sprague Dawley, equilibrium dialysis vs PBS, 37°C, read-out: %Protein Binding ± SD (converted)
# Experimental: Radiolabeled MBX-102 acid was prepared as a 1 mL ethanol solution at a concentration of 50 μM (1 mCi total). […] Final solvent concentrations were 1% of the total volume. Plasma was stored at −20°C. Prior to use, it was thawed and spun at approximately 2000 rpm for 5 minutes to remove any precipitated material. The pH was adjusted to pH 7.4 by careful addition of NaH2PO4. A 1 mL sample of spiked plasma was prepared by direct dilution of [^3H]-MBX-102 acid stock solution into plasma and then added to one side of an equilibrium dialysis chamber. The other chamber was filled with 1 mL of 0.01 M phosphate buffered saline (PBS). The dialysis apparatus was placed in a water bath at 37°C and rotated at 20 rpm. […] Once equilibrium was established, the contents of the cell chambers were removed and analyzed by liquid scintillation counting. The chambers were sampled in triplicate. […] The recovery percentage was found not to vary with MBX-102 acid concentration.
# [5] = test system: human alpha-1-acid glycoprotein; assay: Equilibrium dialysis binding to purified human alpha-1-acid glycoprotein; assay type: in vitro ADME; conditions: purified human alpha-1-acid glycoprotein 22.5 μM, data not shown
# Experimental: Stock solutions of human serum albumin and alpha-1-acid glycoprotein were prepared in PBS buffer. […] The spiked protein solution (175 μL) was added to one side of an equilibrium dialysis chamber, and an equal volume of PBS buffer was added to the other chamber. Dialysis was allowed to reach equilibrium and the binding to protein was determined by liquid scintillation counting of samples from both chambers as described above.
# [6] = test system: mouse and human plasma; assay: Competitive equilibrium dialysis, mouse versus human plasma; assay type: in vitro ADME, CD-1 mouse; conditions: 37°C, n = 5
# Experimental: as §1
# [7] = test system: human, mouse, or rat PPAR-γ; assay: PPAR-γ reporter gene assays comparing human, mouse and rat PPAR-γ (data not shown); assay type: cell-based
# Experimental: For a pool sufficient to supply 100 wells, 6 million cells were diluted into medium for a total volume of 9 mL. The DNA-Lipofectamine 2000 mixture was prepared as per manufacturer’s instructions. For a pool sufficient to supply 100 wells, 5 μg Gal 4-Mouse PPAR-γ LBD, 5 μg pFR-Luciferase, and 500 ng Lac-z plasmids were mixed with 40 μL of Lipofectamine 2000 in Optimem medium in a total volume of 1 mL. The cell suspension was mixed with 1 mL of the DNA-Lipofectamine 2000 mixture. The mixture was plated into a 96-well plate and incubated for 4 hours at which time the transfection medium was removed and replaced with 100 μL DMEM, 10% (v/v) FBS and cultured overnight. The culture medium was then removed from the plates and replaced with 50 μL Pro293A medium. […] Measurement of luciferase and fluorescence activity was performed according to the manufacturer’s instructions. […] An 80 μL lysate aliquot was transferred to opaque white well plates and the luminescence measured. […] Each experimental condition was assessed in quadruplicate. The data were normalized for each well by dividing the luminescence measurement by the fluorescence measurement. Dose-response curves were generated and EC50 values were calculated using Prism Graphpad version 5.1.
# [8] = molecular target: T3, Gal 4-Mouse PPAR-γ LBD (Mus musculus, UniProt P37238); assay: PPAR-γ reporter gene (transactivation) assay in HEK-293T cells with serum or serum proteins; assay type: cell-based; conditions: for EC50: mean ± SD, read-out: EC50 PPAR-γ activation
# T3 construct: 5 μg Gal 4-Mouse PPAR-γ LBD; expressed in transfected cells; host or cells: HEK-293T
# T3 sequence (P37238 238-503 limits assumed): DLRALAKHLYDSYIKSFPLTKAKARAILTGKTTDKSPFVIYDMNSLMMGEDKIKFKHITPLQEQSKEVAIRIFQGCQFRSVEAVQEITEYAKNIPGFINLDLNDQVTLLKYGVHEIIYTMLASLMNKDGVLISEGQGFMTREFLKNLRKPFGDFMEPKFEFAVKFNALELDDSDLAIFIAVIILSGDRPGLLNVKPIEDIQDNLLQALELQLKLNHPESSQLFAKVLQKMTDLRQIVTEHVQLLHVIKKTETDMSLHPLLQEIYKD
# Experimental: All cells were maintained at 37°C in a humidified atmosphere of 8% CO2 in air.
# For a pool sufficient to supply 100 wells, 6 million cells were diluted into medium for a total volume of 9 mL. The DNA-Lipofectamine 2000 mixture was prepared as per manufacturer’s instructions. For a pool sufficient to supply 100 wells, 5 μg Gal 4-Mouse PPAR-γ LBD, 5 μg pFR-Luciferase, and 500 ng Lac-z plasmids were mixed with 40 μL of Lipofectamine 2000 in Optimem medium in a total volume of 1 mL. The cell suspension was mixed with 1 mL of the DNA-Lipofectamine 2000 mixture. The mixture was plated into a 96-well plate and incubated for 4 hours at which time the transfection medium was removed and replaced with 100 μL DMEM, 10% (v/v) FBS and cultured overnight. The culture medium was then removed from the plates and replaced with 50 μL Pro293A medium. Compounds and charcoal stripped/delipidated serum or serum albumin, or alpha-1 acid glycoprotein stock solutions were prepared at 2X final concentration in Pro293A medium and mixed together prior to addition of 50 μL to the transfected cells and incubated for an additional 24 hours. Measurement of luciferase and fluorescence activity was performed according to the manufacturer’s instructions. Briefly, after removal of media, cells were incubated for 10 minutes in 100 μL of Steady-Glo reagent. An 80 μL lysate aliquot was transferred to opaque white well plates and the luminescence measured. The 80 μL aliquot was then transferred back to the original plate. […] Each experimental condition was assessed in quadruplicate. The data were normalized for each well by dividing the luminescence measurement by the fluorescence measurement. Dose-response curves were generated and EC50 values were calculated using Prism Graphpad version 5.1.
# T2 sequence (P02770 25-608): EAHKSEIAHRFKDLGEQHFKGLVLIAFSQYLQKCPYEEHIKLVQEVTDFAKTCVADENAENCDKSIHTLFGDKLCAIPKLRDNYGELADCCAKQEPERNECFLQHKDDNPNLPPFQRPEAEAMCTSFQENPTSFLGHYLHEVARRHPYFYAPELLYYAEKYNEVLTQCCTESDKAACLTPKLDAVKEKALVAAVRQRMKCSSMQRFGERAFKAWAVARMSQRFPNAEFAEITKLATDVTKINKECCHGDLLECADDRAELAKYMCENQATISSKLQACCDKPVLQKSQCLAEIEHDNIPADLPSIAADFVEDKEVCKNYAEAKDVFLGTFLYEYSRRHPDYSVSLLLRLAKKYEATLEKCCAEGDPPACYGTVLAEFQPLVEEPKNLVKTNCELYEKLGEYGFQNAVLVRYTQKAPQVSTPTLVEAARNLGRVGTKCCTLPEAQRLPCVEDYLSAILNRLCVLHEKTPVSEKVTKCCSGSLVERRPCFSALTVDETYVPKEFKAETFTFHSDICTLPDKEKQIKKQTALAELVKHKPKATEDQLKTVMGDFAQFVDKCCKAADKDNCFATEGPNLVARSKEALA
# T1 sequence (P07724 25-608): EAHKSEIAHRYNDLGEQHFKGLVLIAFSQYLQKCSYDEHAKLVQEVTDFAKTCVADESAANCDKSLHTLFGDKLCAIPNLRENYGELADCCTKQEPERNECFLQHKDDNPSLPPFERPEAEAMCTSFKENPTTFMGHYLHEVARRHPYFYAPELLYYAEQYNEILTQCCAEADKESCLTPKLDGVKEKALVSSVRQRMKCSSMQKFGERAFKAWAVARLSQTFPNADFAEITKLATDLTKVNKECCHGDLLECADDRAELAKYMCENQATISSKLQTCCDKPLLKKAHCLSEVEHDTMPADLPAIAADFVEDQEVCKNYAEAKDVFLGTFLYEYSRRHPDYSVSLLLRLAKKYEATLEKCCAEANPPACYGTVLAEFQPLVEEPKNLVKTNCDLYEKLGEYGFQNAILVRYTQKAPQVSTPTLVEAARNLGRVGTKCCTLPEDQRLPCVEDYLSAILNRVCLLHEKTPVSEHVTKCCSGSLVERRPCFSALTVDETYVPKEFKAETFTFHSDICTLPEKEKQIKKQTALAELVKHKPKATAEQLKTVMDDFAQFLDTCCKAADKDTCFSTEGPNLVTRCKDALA
smiles,measurement,setting,value
O=C(O)[C@H](Oc1cccc(C(F)(F)F)c1)c1ccc(Cl)cc1 (stereo in doubt) [MBX-102 acid],Free Fraction Ratio Rat:Human,[1]; MBX-102 acid 100 μM,2.3 ± 0.6
same,Free Fraction Ratio Rat:Human,[1]; MBX-102 acid 300 μM,2.3 ± 0.6
same,Free Fraction Ratio Rat:Human,[1]; MBX-102 acid 700 μM,2.0 ± 0.3
same,Free Fraction Ratio Rat:Human,[1]; MBX-102 acid 1000 μM,1.8 ± 0.2
same,Free Fraction Ratio Rat:Human,[1]; MBX-102 acid 1300 μM,1.7 ± 0.2
same,%Bound,[2]; converted from KD,99.2%
same,Kd,"[2]; high-affinity site, two-independent-site model, 37°C, pH 7.4",5.5 µM
same,%Bound,"[3]; RSA, converted from KD",98.1%
same,Kd,"[3]; RSA, high-affinity site, two-independent-site model, 37°C, pH 7.4",12.8 µM
same,fraction unbound,"[3]; rat, rat serum albumin immobilized on a CM5 sensor chip, pH 7.4, RSA, converted from KD, read-out: %Bound",< 0.02
same,fraction unbound at 400 µM,"[4]; pH 7.4, MBX-102 acid 400 μM",0.002
same,fraction unbound at 600 µM,"[4]; pH 7.4, MBX-102 acid 600 μM",0.002
same,fraction unbound at 1000 µM,"[4]; pH 7.4, MBX-102 acid 1000 μM",0.003
same,fraction unbound at 1500 µM,"[4]; pH 7.4, MBX-102 acid 1500 μM",0.002
same,fraction unbound at 2000 µM,"[4]; pH 7.4, MBX-102 acid 2000 μM",0.005
same,binding to human alpha 1-acid glycoprotein,[5],< 5%
same,Free Fraction Ratio Mouse:Human,[6]; MBX-102 acid 100 μM,10.5 ± 5.5
same,Free Fraction Ratio Mouse:Human,[6]; MBX-102 acid 300 μM,5.9 ± 3.6
same,Free Fraction Ratio Mouse:Human,[6]; MBX-102 acid 700 μM,3.7 ± 1.9
same,Free Fraction Ratio Mouse:Human,[6]; MBX-102 acid 1000 μM,2.6 ± 1.1
same,Free Fraction Ratio Mouse:Human,[6]; MBX-102 acid 1300 μM,2.3 ± 0.7
same,"intrinsic differences in ability to activate human, mouse, or rat PPAR-γ",[7],no intrinsic differences
same,EC50,"[8]; 0% human serum albumin (Figure 3), 2–6 experiments",14.4 ± 2.5 µM
same,EC50,"[8]; 0% serum (Figure 2), 3 experiments",15.1 ± 1.9 µM
same,EC50,"[8]; 0.08% human serum albumin (Figure 3), 2–6 experiments",44 ± 5.6 µM
same,EC50,"[8]; 2% (v/v) human serum (Figure 2), 3 experiments",43.5 ± 6.9 µM
same,fold change in mean EC50 relative to no serum,[8]; 2% human serum,3 fold
